Assays:
Assay in all cases: SelectScreen kinase profiling, SSBK ZLyte SP Technology
Type in all cases: biochemical
[1] = target: kinase named in conditions (Homo sapiens, UniProt O75914); conditions: PAK3, 10 μM
Method: (§1) Kinase selectivity screening was performed by Thermo Fisher Scientific (Paisley, U.K.) in their SelectScreen Biochemical Kinase Profiling Service. Assay information and data are presented in the Supporting Information.
(§2) Kinase selectivity screening was performed by ThermoFisher Scientific (Paisley, U.K.) in their SelectScreenTM
(§3) Biochemical Kinase Profiling service .

[2] = target: kinase named in conditions (Homo sapiens, UniProt P00519, T315I); conditions: ABL1 T315I, 10 μM
Method: as §1, §2, §3

[3] = target: kinase named in conditions (Homo sapiens, UniProt P00533, L858R/T790M); conditions: EGFR (ErbB1) T790M L858R, 10 μM
Method: as §1, §2, §3

[4] = target: kinase named in conditions (Homo sapiens, UniProt P00533, L861Q); conditions: EGFR (ErbB1) L861Q, 10 μM
Method: as §1, §2, §3

[5] = target: kinase named in conditions (Homo sapiens, UniProt P00533, T790M); conditions: EGFR (ErbB1) T790M, 10 μM
Chain of kinase named in conditions (Homo sapiens, UniProt P00533, T790M) (P00533 25-1210 T790M): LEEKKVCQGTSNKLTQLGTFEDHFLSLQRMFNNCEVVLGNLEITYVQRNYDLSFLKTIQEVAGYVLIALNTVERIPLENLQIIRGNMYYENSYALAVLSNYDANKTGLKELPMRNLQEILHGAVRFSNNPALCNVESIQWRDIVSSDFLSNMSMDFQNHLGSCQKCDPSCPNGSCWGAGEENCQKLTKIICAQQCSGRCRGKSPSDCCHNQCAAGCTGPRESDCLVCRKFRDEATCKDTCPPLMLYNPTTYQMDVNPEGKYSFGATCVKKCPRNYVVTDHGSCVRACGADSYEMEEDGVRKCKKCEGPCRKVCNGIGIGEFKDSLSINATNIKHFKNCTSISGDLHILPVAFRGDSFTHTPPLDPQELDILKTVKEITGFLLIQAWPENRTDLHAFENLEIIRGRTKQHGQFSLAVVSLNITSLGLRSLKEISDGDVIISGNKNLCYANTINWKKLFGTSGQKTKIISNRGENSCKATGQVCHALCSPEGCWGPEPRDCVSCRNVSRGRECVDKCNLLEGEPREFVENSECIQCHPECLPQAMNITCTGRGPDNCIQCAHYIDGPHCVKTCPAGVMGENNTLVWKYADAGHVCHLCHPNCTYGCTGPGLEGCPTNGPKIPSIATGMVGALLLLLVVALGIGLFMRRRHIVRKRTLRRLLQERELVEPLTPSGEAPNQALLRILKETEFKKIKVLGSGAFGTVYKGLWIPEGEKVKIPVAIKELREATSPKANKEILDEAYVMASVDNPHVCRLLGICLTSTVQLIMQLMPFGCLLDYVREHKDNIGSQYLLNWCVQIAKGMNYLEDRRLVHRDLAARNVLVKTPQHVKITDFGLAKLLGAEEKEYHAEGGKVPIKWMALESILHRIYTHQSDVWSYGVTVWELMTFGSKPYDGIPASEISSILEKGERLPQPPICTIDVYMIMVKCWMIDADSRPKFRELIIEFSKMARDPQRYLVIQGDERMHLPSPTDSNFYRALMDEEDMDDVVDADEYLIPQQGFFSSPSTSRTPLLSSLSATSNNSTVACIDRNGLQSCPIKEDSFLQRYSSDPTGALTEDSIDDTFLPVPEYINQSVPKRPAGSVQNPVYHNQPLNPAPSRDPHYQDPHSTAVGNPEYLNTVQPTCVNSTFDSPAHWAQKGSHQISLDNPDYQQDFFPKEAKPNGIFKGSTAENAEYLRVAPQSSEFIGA
Method: as §1, §2, §3

[6] = target: kinase named in conditions (Homo sapiens, UniProt P05771); conditions: PRKCB1 (PKC beta I), 10 μM
Method: as §1, §2, §3

[7] = target: kinase named in conditions (Homo sapiens, UniProt P07949); conditions: RET, 10 μM
Method: as §1, §2, §3

[8] = target: kinase named in conditions (Homo sapiens, UniProt P07949, V804E); conditions: RET V804E, 10 μM
Method: as §1, §2, §3

[9] = target: kinase named in conditions (Homo sapiens, UniProt P08581, Y1235D); conditions: MET (cMet) Y1235D, 10 μM
Method: as §1, §2, §3

[10] = target: kinase named in conditions (Homo sapiens, UniProt P09769); conditions: FGR, 10 μM
Method: as §1, §2, §3

[11] = target: kinase named in conditions (Homo sapiens, UniProt P16234, T674I); conditions: PDGFRA T674I, 10 μM
Method: as §1, §2, §3

[12] = target: kinase named in conditions (Homo sapiens, UniProt P21709); conditions: EPHA1, 10 μM
Method: as §1, §2, §3

[13] = target: kinase named in conditions (Homo sapiens, UniProt P22607); conditions: FGFR3, 10 μM
Method: as §1, §2, §3

[14] = target: kinase named in conditions (Homo sapiens, UniProt P27361); conditions: MAPK3 (ERK1), 10 μM
Method: as §1, §2, §3

[15] = target: kinase named in conditions (Homo sapiens, UniProt P30530); conditions: AXL, 10 μM
Method: as §1, §2, §3

[16] = target: kinase named in conditions (Homo sapiens, UniProt P36888, D835Y); conditions: FLT3 D835Y, 10 μM
Method: as §1, §2, §3

[17] = target: kinase named in conditions (Homo sapiens, UniProt P41279); conditions: MAP3K8 (COT), 10 μM
Method: as §1, §2, §3

[18] = target: kinase named in conditions (Homo sapiens, UniProt P51813); conditions: BMX, 10 μM
Method: as §1, §2, §3

[19] = target: kinase named in conditions (Homo sapiens, UniProt Q00537); conditions: CDK17/cyclin Y, 10 μM
Method: as §1, §2, §3

[20] = target: kinase named in conditions (Homo sapiens, UniProt Q02156); conditions: PRKCE (PKC epsilon), 10 μM
Chain of kinase named in conditions (Homo sapiens, UniProt Q02156) (Q02156 whole entry): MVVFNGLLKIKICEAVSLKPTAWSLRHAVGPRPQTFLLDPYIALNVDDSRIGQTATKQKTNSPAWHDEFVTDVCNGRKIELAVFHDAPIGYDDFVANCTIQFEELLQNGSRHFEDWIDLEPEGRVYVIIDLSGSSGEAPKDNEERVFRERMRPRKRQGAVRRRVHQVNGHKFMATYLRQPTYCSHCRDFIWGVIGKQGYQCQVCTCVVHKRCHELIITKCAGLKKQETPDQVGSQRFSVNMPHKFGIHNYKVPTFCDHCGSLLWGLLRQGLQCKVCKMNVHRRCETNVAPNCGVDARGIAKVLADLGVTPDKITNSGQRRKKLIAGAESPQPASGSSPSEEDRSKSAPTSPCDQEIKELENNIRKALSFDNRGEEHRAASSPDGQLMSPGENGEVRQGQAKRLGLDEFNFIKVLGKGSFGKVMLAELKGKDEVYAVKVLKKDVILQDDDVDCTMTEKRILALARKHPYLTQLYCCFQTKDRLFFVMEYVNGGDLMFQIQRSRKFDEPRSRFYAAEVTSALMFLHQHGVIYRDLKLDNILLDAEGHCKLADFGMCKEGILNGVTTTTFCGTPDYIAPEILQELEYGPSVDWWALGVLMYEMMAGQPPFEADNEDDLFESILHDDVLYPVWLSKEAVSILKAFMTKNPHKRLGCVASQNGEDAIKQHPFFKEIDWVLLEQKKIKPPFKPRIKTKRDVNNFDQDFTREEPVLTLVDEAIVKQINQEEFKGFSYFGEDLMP
Method: as §1, §2, §3

[21] = target: kinase named in conditions (Homo sapiens, UniProt Q02763, Y897S); conditions: TEK (TIE2) Y897S, 10 μM
Chain of kinase named in conditions (Homo sapiens, UniProt Q02763, Y897S) (Q02763 23-1124 Y897S): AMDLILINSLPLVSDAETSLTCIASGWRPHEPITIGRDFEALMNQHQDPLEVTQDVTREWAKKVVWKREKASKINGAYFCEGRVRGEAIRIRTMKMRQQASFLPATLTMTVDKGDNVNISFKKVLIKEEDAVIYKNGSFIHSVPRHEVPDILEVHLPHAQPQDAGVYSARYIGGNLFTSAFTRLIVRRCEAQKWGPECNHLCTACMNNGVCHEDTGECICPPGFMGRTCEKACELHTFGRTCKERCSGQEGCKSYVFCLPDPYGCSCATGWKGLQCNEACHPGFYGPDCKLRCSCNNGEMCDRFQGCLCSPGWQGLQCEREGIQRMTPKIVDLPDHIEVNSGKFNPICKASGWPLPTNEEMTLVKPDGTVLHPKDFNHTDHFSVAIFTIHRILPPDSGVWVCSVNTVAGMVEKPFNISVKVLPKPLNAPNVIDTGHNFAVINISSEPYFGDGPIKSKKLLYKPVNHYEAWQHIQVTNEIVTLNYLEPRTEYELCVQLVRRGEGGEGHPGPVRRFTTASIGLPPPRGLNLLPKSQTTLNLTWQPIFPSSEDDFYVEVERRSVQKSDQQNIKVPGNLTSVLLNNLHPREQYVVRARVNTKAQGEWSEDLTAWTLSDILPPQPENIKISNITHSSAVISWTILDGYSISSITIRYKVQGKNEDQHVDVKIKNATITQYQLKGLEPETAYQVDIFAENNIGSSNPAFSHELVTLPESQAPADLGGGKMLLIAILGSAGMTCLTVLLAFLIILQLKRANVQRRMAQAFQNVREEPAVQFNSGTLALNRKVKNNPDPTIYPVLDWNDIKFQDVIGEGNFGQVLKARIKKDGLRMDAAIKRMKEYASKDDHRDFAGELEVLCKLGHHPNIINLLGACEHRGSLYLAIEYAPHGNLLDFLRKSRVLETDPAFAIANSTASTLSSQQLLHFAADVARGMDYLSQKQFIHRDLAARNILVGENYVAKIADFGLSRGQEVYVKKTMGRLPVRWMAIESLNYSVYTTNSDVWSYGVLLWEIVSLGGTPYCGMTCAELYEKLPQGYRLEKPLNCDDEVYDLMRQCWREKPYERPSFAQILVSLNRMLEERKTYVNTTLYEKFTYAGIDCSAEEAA
Method: as §1, §2, §3

[22] = target: kinase named in conditions (Homo sapiens, UniProt Q04912); conditions: MST1R (RON), 10 μM
Chain of kinase named in conditions (Homo sapiens, UniProt Q04912) (Q04912 25-1400): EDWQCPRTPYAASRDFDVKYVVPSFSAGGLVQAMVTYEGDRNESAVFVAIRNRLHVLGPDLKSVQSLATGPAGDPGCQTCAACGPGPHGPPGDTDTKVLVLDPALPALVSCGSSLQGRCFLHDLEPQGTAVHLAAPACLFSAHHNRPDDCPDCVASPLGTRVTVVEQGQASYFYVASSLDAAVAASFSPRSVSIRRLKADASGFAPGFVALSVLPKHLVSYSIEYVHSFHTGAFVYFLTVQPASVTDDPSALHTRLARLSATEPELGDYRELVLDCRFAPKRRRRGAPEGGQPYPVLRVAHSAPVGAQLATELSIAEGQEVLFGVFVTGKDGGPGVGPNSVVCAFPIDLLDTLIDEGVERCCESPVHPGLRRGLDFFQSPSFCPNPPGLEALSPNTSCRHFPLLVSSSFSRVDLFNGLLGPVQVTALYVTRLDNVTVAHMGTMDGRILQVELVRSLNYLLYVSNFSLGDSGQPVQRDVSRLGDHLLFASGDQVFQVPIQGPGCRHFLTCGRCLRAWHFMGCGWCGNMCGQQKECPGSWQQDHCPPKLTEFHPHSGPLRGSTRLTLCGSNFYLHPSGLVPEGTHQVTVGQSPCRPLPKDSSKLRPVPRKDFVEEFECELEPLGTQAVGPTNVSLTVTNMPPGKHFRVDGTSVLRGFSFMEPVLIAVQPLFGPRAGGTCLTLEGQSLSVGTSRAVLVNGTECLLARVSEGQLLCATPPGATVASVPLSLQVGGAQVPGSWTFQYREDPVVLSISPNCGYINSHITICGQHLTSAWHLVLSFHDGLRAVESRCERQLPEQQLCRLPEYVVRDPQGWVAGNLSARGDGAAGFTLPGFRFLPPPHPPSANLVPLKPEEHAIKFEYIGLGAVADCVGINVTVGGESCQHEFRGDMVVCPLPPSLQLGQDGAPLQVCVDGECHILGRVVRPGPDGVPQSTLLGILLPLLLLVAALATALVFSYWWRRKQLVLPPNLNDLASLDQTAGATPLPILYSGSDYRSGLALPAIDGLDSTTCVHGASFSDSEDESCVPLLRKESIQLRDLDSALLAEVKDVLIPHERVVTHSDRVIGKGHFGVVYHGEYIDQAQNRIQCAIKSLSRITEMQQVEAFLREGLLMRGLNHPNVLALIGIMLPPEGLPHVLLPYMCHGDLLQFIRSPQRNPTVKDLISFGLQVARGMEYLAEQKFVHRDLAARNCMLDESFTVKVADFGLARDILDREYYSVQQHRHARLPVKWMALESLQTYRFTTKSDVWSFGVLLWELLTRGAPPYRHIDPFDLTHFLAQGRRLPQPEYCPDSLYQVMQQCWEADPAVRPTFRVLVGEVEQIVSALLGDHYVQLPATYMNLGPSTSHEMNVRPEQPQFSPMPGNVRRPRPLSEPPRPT
Method: as §1, §2, §3

[23] = target: kinase named in conditions (Homo sapiens, UniProt Q05397); conditions: PTK2 (FAK), 10 μM
Method: as §1, §2, §3

[24] = target: kinase named in conditions (Homo sapiens, UniProt Q13153); conditions: PAK1, 10 μM
Method: as §1, §2, §3

[25] = target: kinase named in conditions (Homo sapiens, UniProt Q13177); conditions: PAK2 (PAK65), 10 μM
Method: as §1, §2, §3

[26] = target: kinase named in conditions (Homo sapiens, UniProt Q15139); conditions: PRKD1 (PKC mu), 10 μM
Method: as §1, §2, §3

[27] = target: kinase named in conditions (Homo sapiens, UniProt Q16620); conditions: NTRK2 (TRKB), 10 μM
Method: as §1, §2, §3

[28] = target: kinase named in conditions (Homo sapiens, UniProt Q8N752); conditions: CSNK1A1L, 10 μM
Method: as §1, §2, §3

[29] = target: kinase named in conditions (Homo sapiens, UniProt Q96PF2); conditions: STK22B (TSSK2), 10 μM
Method: as §1, §2, §3

[30] = target: kinase named in conditions (Homo sapiens, UniProt Q9BUB5); conditions: MKNK1 (MNK1), 10 μM
Method: as §1, §2, §3

[31] = target: kinase named in conditions (Homo sapiens, UniProt Q9NWZ3); conditions: IRAK4, 10 μM
Method: as §1, §2, §3

[32] = target: kinase named in conditions (Homo sapiens, UniProt Q9P289); conditions: MST4, 10 μM
Method: as §1, §2, §3

[33] = target: kinase named in conditions (Homo sapiens, UniProt Q9UQM7); conditions: CAMK2A (CaMKII alpha), 10 μM
Chain of kinase named in conditions (Homo sapiens, UniProt Q9UQM7) (Q9UQM7 whole entry): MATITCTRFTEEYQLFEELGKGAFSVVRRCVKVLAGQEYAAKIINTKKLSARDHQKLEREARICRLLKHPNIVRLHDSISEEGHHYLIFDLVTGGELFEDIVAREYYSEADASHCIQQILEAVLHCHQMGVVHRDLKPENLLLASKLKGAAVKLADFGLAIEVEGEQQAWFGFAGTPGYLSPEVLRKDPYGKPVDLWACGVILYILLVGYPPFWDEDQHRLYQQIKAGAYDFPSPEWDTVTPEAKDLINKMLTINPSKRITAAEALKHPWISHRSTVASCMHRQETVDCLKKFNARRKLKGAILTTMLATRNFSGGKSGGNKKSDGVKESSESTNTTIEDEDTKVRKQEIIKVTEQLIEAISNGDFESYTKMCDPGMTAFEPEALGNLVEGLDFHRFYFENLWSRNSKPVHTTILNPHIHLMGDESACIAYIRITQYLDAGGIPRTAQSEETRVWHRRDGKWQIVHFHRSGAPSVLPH
Method: as §1, §2, §3

[34] = target: kinase named in conditions (Homo sapiens, UniProt Q9Y5S2); conditions: CDC42 BPB (MRCKB), 10 μM
Method: as §1, §2, §3

SMILES: FC(F)(F)c1c(Cl)ccc(-n2ccnn2)c1Cl [8l, 1-(2,4-Dichloro-3-(trifluoromethyl)phenyl)-1H-1,2,3-triazole]
- inhibition at 10 µM [1]: 8%
- inhibition at 10 µM [2]: 0%
- inhibition at 10 µM [3]: 12%
- inhibition at 10 µM [4]: 0%
- inhibition at 10 µM [5]: 9%
- inhibition at 10 µM [6]: 0%
- inhibition at 10 µM [7]: 7%
- inhibition at 10 µM [8]: 4%
- inhibition at 10 µM [9]: 0%
- inhibition at 10 µM [10]: 4%
- inhibition at 10 µM [11]: 4%
- inhibition at 10 µM [12]: 4%
- inhibition at 10 µM [13]: 12%
- inhibition at 10 µM [14]: 4%
- inhibition at 10 µM [15]: 4%
- inhibition at 10 µM [16]: 3%
- inhibition at 10 µM [17]: 0%
- inhibition at 10 µM [18]: 7%
- inhibition at 10 µM [19]: 1%
- inhibition at 10 µM [20]: -1%
- inhibition at 10 µM [21]: 2%
- inhibition at 10 µM [22]: 11%
- inhibition at 10 µM [23]: 4%
- inhibition at 10 µM [24]: 23%
- inhibition at 10 µM [25]: 5%
- inhibition at 10 µM [26]: 11%
- inhibition at 10 µM [27]: 5%
- inhibition at 10 µM [28]: -2%
- inhibition at 10 µM [29]: -2%
- inhibition at 10 µM [30]: 0%
- inhibition at 10 µM [31]: 5%
- inhibition at 10 µM [32]: 23%
- inhibition at 10 µM [33]: -2%
- inhibition at 10 µM [34]: -1%

Reference: paper PMC9150124, “Design of a Potent, Selective, and Brain-Penetrant Inhibitor of Wnt-Deactivating Enzyme Notum by Optimization of a Crystallographic Fragment Hit” (Journal of Medicinal Chemistry, 2022)
